The record followed here is patent US20230391781A1, “MALT1 MODULATORS AND USES THEREOF” (Rheos Medicines, Inc., priority 2020, published 2023).

For experiment [1], the system named is IL-2 in Jurkat (ATCC, clone E6.1) cells stimulated with anti-CD3/28/2. As to the kind of experiment: Jurkat IL-2 Assay. It is filed as cell-based. To be noted: Homo sapiens; IL-2 inhibition, Jurkat cells, 30 min compound then anti-CD3/28/2 stimulation for 24 hours; mean value if tested more than once; read-out: IC50. As for the experimental part: Inhibition was determined in a cell-based assay using Jurkat (ATCC, clone E6.1), an immortalized T-cell line, exposed to a dose response of compound and assessed for viability, and Il-2 inhibition by ELISA. Cells were cultured in RPMI/10% FBS (Invitrogen 11875093, Atlanta Biologicals S12450H), maintained below 3E6/mL and only used in assays while below passage 25. Compounds were stamped by ECHO onto 384w plates (PerkinElmer Culturplate, 6007680). The cells were plated in fresh media on top of compound and incubated for 30 minutes before stimulation with soluble anti-CD3/28/2 (Stemcell, 10970) for 24 hours. Supernatant was collected and assessed for Il-2 (MSD, 384w, L21SA-1). To assess viability of cells treated with compound, cells were lysed with CTG reagent (Promega, G7570), and measured by luminometer. […] IC50s calculated using 4-parameter fit in GraphPad Prism.
In this table, “A” indicates IC50 of less than 0.1 μM; “B” indicates IC50 from 0.1 μM up to 1 μM; and “C” indicates IC50 of greater than 1 μM. “N/A” indicates not tested. For a compound that was tested in more than one experiment, the result shown represents the mean value.

For experiment [2], the target named is full length MALT1 (Homo sapiens (Human), UniProt Q9UDY8). As to the kind of experiment: MALT1 Biochemical Assay. The conditions noted are these: 15 nM enzyme, 30 μM peptide substrate Ac-Leu-Arg-Ser-Arg-Rh110-dPro, 30 min pre-incubation, 60 min reaction; mean value if tested more than once. As for the experimental part: Inhibitor potency was evaluated by measuring enzymatic activity of full length MALT1 at varying concentrations of compound. The enzymatic assay consists of a single substrate reaction that monitors the release of a fluorescent dye upon cleavage of the peptide substrate. […] The assay buffer consists of 50 mM Hepes, pH 7.5, 0.8 M sodium citrate, 1 mM DTT, 0.004% tween-20, and 0.005% bovine serum albumin (BSA). […] The reaction was quenched after 60 minutes with the addition of iodoacetate at a final concentration of 10 mM. Total fluorescence was measured using an Envision (PerkinElmer) with fluorescence excitation at 485 nm and emission at […].
Sequence of full length MALT1 (Q9UDY8 whole entry): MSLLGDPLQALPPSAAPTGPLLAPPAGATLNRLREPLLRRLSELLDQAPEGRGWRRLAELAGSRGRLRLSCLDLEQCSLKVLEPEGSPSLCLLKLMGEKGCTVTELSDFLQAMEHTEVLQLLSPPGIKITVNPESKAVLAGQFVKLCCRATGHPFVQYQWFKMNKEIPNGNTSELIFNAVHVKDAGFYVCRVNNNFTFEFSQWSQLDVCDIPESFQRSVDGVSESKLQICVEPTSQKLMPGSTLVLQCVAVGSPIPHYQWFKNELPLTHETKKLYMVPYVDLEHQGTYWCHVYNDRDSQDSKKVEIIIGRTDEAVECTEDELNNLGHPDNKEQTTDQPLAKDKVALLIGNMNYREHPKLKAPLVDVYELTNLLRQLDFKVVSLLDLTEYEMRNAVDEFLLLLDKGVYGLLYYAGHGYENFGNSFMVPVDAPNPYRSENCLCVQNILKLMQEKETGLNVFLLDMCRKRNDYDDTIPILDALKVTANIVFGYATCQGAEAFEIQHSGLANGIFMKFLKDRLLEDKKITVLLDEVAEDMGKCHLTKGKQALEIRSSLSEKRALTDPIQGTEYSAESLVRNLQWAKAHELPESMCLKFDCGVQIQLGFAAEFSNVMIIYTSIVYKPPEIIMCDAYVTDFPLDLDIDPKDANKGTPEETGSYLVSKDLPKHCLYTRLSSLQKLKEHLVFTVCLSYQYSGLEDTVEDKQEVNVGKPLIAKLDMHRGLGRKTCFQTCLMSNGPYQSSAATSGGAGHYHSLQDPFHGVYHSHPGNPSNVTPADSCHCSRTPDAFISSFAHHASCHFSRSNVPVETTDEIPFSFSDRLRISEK
For potency determination, 1 μL of serially diluted compound (in 100% DMSO) was pre-incubated with 40 μL of enzyme for 30 minutes. The reaction was initiated with the addition of 10 μL of peptide substrate. The relative fluorescence units were transformed to percent inhibition by using 0% and 100% inhibition controls as reference. […] IC50 values were calculated by fitting the concentration-response curves to a four-parameter logistic equation in GraphPad Prism.

The IC50 is the concentration at which inhibition is half-maximal. Consider `CO[C@@H](C)c1c(Nc2ccc([C@H](N(C)C(C)=O)C(F)(F)F)cc2)cnc2nc(Cl)nn12` [Compound 1.2, N-[(1S)-1-[4-({2-chloro-7-[(1S)-1-methoxyethyl]-[1,2,4]triazolo[1,5-a]pyrimidin-6-yl}amino)phenyl]-2,2,2-trifluoroethyl]-N-methylacetamide], for which the IC50 in experiment [1] and in experiment [2] was 0.1 to 1 µM each time.

In the case of `CO[C@@H](C)c1c(Nc2ccc([C@H](N(C)C(=O)C3CCCCO3)C(F)(F)F)cc2)cnc2nc(Cl)nn12` (stereo partly drawn) [Compound 1.3, N-[(1S)-1-[4-({2-chloro-7-[(1S)-1-methoxyethyl]-[1,2,4]triazolo[1,5-a]pyrimidin-6-yl}amino)phenyl]-2,2,2-trifluoroethyl]-N-methyloxane-2-carboxamide], the IC50 in experiment [1] and in experiment [2] was 0.1 to 1 µM each time.

Regarding `COC(=O)[C@H]1CC[C@H](C(=O)N(C)[C@@H](c2ccc(Nc3cnc4nc(Cl)nn4c3[C@H](C)OC)cc2)C(F)(F)F)CC1` [Compound 1.4, methyl(1r,4r)-4-{[(1S)-1-[4-({2-chloro-7-[(1S)-1-methoxyethyl]-[1,2,4]triazolo[1,5-a]pyrimidin-6-yl}amino)phenyl]-2,2,2-trifluoroethyl] (methyl)carbamoyl}cyclohexane-1-carboxylate], the IC50 in experiment [1] and in experiment [2] was 0.1 to 1 µM throughout.

On to `CO[C@@H](C)c1c(Nc2ccc([C@H](N(C)C(=O)C3CCSCC3)C(F)(F)F)cc2)cnc2nc(Cl)nn12` [Compound 1.5, N-[(1S)-1-[4-({2-chloro-7-[(1S)-1-methoxyethyl]-[1,2,4]triazolo[1,5-a]pyrimidin-6-yl}amino)phenyl]-2,2,2-trifluoroethyl]-N-methylthiane-4-carboxamide], for which the values for the IC50 in experiment [1] and in experiment [2] were 0.1 to 1 µM and less than 0.1 µM, respectively.

As for `CO[C@@H](C)c1c(Nc2ccc([C@H](N(C)C(=O)C3CCOC3)C(F)(F)F)cc2)cnc2nc(Cl)nn12` (some centres unmarked) [Compound 1.6], the IC50 in experiment [1] is 0.1 to 1 µM; in experiment [2], less than 0.1 µM.

Take `CO[C@@H](C)c1c(Nc2ccc([C@H](N(C)C(=O)C3CCC4(CC3)OCCO4)C(F)(F)F)cc2)cnc2nc(Cl)nn12` [Compound 1.7, N-[(1S)-1-[4-({2-chloro-7-[(1S)-1-methoxyethyl]-[1,2,4]triazolo[1,5-a]pyrimidin-6-yl}amino)phenyl]-2,2,2-trifluoroethyl]-N-methyl-1,4-dioxaspiro[4.5]decane-8-carboxamide]: the values for the IC50 in experiment [1] and in experiment [2] were 0.1 to 1 µM and less than 0.1 µM, respectively.

On to `CO[C@@H](C)c1c(Nc2ccc([C@H](N(C)C(=O)[C@H]3C[C@H](C#N)C3)C(F)(F)F)cc2)cnc2nc(Cl)nn12` [Compound 1.9, (1r,3S)—N—((S)-1-(4-((2-chloro-7-((S)-1-methoxyethyl)-[1,2,4]triazolo[1,5-a]pyrimidin-6-yl)amino)phenyl)-2,2,2-trifluoroethyl)-3-cyano-N-methylcyclobutane-1-carboxamide], for which the IC50 in experiment [1] and in experiment [2] was 0.1 to 1 µM each time.

Consider `CO[C@@H](C)c1c(Nc2ccc([C@H](N(C)C(=O)C3CCN(C(=O)OC(C)(C)C)CC3)C(F)(F)F)cc2)cnc2nc(Cl)nn12` [Compound 1.10, tert-butyl 4-{[(1S)-1-[4-({2-chloro-7-[(1S)-1-methoxyethyl]-[1,2,4]triazolo[1,5-a]pyrimidin-6-yl}amino)phenyl]-2,2,2-trifluoroethyl](methyl)carbamoyl}piperidine-1-carboxylate], for which the IC50 in experiment [1] and in experiment [2] was 0.1 to 1 µM throughout.

On to `CO[C@@H](C)c1c(Nc2ccc([C@H](N(C)C(=O)C3CCCN(C(=O)OC(C)(C)C)C3)C(F)(F)F)cc2)cnc2nc(Cl)nn12` (stereo partly drawn) [Compound 1.11, Tert-butyl 3-{[(1S)-1-[4-({2-chloro-7-[(1S)-1-methoxyethyl]-[1,2,4]triazolo[1,5-a]pyrimidin-6-yl}amino)phenyl]-2,2,2-trifluoroethyl](methyl)carbamoyl}piperidine-1-carboxylate], for which the IC50 in experiment [1] was more than 1 µM; in experiment [2], 0.1 to 1 µM.

For `CO[C@@H](C)c1c(Nc2ccc([C@H](N(C)C(=O)C3CCN(C(=O)OC(C)(C)C)C3)C(F)(F)F)cc2)cnc2nc(Cl)nn12` (stereo partly drawn) [Compound 1.12, Tert-butyl 3-{[(1S)-1-[4-({2-chloro-7-[(1S)-1-methoxyethyl]-[1,2,4]triazolo[1,5-a]pyrimidin-6-yl}amino)phenyl]-2,2,2-trifluoroethyl](methyl)carbamoyl}pyrrolidine-1-carboxylate], the IC50 in experiment [1] was more than 1 µM; in experiment [2] it was 0.1 to 1 µM.

In the case of `CO[C@@H](C)c1c(Nc2ccc([C@H](N(C)C(=O)C3CCC(CNC(=O)OC(C)(C)C)CC3)C(F)(F)F)cc2)cnc2nc(Cl)nn12` (stereo partly drawn) [Compound 1.13, tert-butyl N-[(4-{[(1S)-1-[4-({2-chloro-7-[(1S)-1-methoxyethyl]-[1,2,4]triazolo[1,5-a]pyrimidin-6-yl}amino)phenyl]-2,2,2-trifluoroethyl](methyl)carbamoyl}cyclohexyl)methyl]carbamate], the IC50 in experiment [1] and in experiment [2] was 0.1 to 1 µM in each case.

For `CO[C@@H](C)c1c(Nc2ccc([C@H](N(C)C(=O)[C@H]3CC[C@H](OC)CC3)C(F)(F)F)cc2)cnc2nc(Cl)nn12` [Compound 1.14, (1r,4S)—N—((S)-1-(4-((2-chloro-7-((S)-1-methoxyethyl)-[1,2,4]triazolo[1,5-a]pyrimidin-6-yl)amino)phenyl)-2,2,2-trifluoroethyl)-4-methoxy-N-methylcyclohexane-1-carboxamide], the values for the IC50 in experiment [1] and in experiment [2] were 0.1 to 1 µM and less than 0.1 µM, respectively.

For the compound `COC(=O)NC1CCC(C(=O)N(C)[C@@H](c2ccc(Nc3cnc4nc(Cl)nn4c3[C@H](C)OC)cc2)C(F)(F)F)CC1` (stereo partly drawn) [Compound 1.16, methyl (4-(((S)-1-(4-((2-chloro-7-((S)-1-methoxyethyl)-[1,2,4]triazolo[1,5-a]pyrimidin-6-yl)amino)phenyl)-2,2,2-trifluoroethyl)(methyl)carbamoyl)cyclohexyl)carbamate], the IC50 in experiment [1] was 0.1 to 1 µM; in experiment [2] it was less than 0.1 µM.

For the compound `CO[C@@H](C)c1c(Nc2ccc([C@H](N(C)C(=O)C3CCC(NC(C)=O)CC3)C(F)(F)F)cc2)cnc2nc(Cl)nn12` (stereo partly drawn) [Compound 1.17, N-[(1S)-1-[4-({2-chloro-7-[(1S)-1-methoxyethyl]-[1,2,4]triazolo[1,5-a]pyrimidin-6-yl}amino)phenyl]-2,2,2-trifluoroethyl]-4-acetamido-N-methylcyclohexane1-carboxamide], the values for the IC50 in experiment [1] and in experiment [2] were 0.1 to 1 µM and less than 0.1 µM, respectively.

On to `CO[C@@H](C)c1c(Nc2ccc(C(C)N(C)C(=O)C3CCC3)cc2)cnc2nc(Cl)nn12` (stereo partly drawn) [Compound 1.20, N-{1-[4-({2-chloro-7-[(1S)-1-methoxyethyl]-[1,2,4]triazolo[1,5-a]pyrimidin-6-yl}amino)phenyl]ethyl}-N-methylcyclobutanecarboxamide], for which the IC50 in experiment [1] and in experiment [2] was more than 1 µM each time.

Regarding `CO[C@@H](C)c1c(Nc2ccc(C(C)N(C)C(=O)C3CCCCC3)cc2)cnc2nc(Cl)nn12` (stereo partly drawn) [Compound 1.21, N-{1-[4-({2-chloro-7-[(1S)-1-methoxyethyl]-[1,2,4]triazolo[1,5-a]pyrimidin-6-yl}amino)phenyl]ethyl}-N-methylcyclohexanecarboxamide], the IC50 in experiment [1] and in experiment [2] was more than 1 µM each time.

On to `CO[C@@H](C)c1c(Nc2ccc(C(C)N(C)C(=O)C3CCCC3)cc2)cnc2nc(Cl)nn12` (stereo partly drawn) [Compound 1.22, N-{1-[4-({2-chloro-7-[(1S)-1-methoxyethyl]-[1,2,4]triazolo[1,5-a]pyrimidin-6-yl}amino)phenyl]ethyl}-N-methylcyclopentanecarboxamide], for which the IC50 in experiment [1] and in experiment [2] was more than 1 µM each time.

Take `CO[C@@H](C)c1c(Nc2ccc(C(C)N(C)C(=O)C3CC3)cc2)cnc2nc(Cl)nn12` (stereo partly drawn) [Compound 1.23, N-{1-[4-({2-chloro-7-[(1S)-1-methoxyethyl]-[1,2,4]triazolo[1,5-a]pyrimidin-6-yl}amino)phenyl]ethyl}-N-methylcyclopropanecarboxamide]: the IC50 in experiment [1] and in experiment [2] was more than 1 µM each time.

`CO[C@@H](C)c1c(Nc2ccc(C(C)N(C)C(C)=O)cc2)cnc2nc(Cl)nn12` (stereo partly drawn) [Compound 1.24, N-{1-[4-({2-chloro-7-[(1S)-1-methoxyethyl]-[1,2,4]triazolo[1,5-a]pyrimidin-6-yl}amino)phenyl]ethyl}-N-methylacetamide]: the IC50 in experiment [1] and in experiment [2] was more than 1 µM throughout.
